Target: Mpa (mycobacterial proteasome ATPase) (Mycobacterium tuberculosis, UniProt P9WQN5)
Assay: […]
Format: binding

Sequence of Mpa (mycobacterial proteasome ATPase) (P9WQN5 whole entry): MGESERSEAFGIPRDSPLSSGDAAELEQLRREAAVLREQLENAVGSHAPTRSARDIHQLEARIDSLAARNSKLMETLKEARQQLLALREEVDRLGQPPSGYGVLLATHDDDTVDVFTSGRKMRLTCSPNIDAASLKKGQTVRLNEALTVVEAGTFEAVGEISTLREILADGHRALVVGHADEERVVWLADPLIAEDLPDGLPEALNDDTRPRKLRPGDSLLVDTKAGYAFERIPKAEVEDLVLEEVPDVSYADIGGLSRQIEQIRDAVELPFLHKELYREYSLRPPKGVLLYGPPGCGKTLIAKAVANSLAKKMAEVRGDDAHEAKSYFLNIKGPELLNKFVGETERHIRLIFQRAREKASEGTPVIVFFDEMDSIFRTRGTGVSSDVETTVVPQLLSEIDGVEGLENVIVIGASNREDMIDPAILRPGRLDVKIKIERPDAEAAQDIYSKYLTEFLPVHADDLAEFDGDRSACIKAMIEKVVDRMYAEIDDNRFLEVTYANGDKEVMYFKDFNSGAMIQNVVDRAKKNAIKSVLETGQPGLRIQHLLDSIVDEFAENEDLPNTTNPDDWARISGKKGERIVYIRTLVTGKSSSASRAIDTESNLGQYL

Row | SMILES | Kd [nM]
1 | c1ccc(N=NN2CCOCC2)cc1 [MTBA, NSC 136065] | 1 ± 0.1
2 | Cn1cnc2ncnn2c1=S [MTBB, NSC 145180] | 400 ± 100

— PMC5856640 (ACS chemical biology, 2018)
